Experimental data taken from US7964607B2, “Pyrazolo[3,4-d]pyrimidine compounds” (Pfizer Inc., priority 2007, dated 2011).

Target: T1, human recombinant PDE9 enzyme (Homo sapiens, UniProt O76083)
T1 construct: made in house; host or cells: SF-9 insect cells
Assay: Phosphodiesterase 9 (PDE9) inhibitory activity, Scintillation Proximity (SPA) assay
Format: biochemical
Settings: not given
Method: Phosphodiesterase 9 (PDE9) Inhibitory Activity The PDE9 assay was performed using the Phosphodiesterase Scintillation Proximity (SPA) assay (GE Healthcare Life Sciences). […] The human recombinant PDE9 enzyme was generated in SF-9 cells, the cell pellets were sonicated in buffer (20 mM TRIS, 2 mM benzamidine, 1 mM EDTA, 250 mM sucrose, 100 μM PMSF, pH 7.5 with HCl), centrifuged at 40,000×g for 20 min at 4° C. The supernatants were stored at −80° C. […] Test compounds were dissolved in DMSO, diluted in DI H2O and serially diluted in 20% DMSO/80% H2O, for a final concentration of 2% DMSO. For the assay the PDE9 was diluted with assay buffer such that 20% or less of the substrate was hydrolyzed to 5′GMP. Each assay well contained 10 μl of test compound or solvent, 40 μl of [^3H]CGMP and 50 μl of enzyme, background was determined by a high concentration of a PDE inhibitor. The assay was initiated with the addition of the enzyme and carried out at room temperature for 30 min. […] The plates were sealed, vortexed, allowed to set for >300 min, then counted in a Wallac TriLux MicroBeta LSC.

T1 sequence (O76083 whole entry): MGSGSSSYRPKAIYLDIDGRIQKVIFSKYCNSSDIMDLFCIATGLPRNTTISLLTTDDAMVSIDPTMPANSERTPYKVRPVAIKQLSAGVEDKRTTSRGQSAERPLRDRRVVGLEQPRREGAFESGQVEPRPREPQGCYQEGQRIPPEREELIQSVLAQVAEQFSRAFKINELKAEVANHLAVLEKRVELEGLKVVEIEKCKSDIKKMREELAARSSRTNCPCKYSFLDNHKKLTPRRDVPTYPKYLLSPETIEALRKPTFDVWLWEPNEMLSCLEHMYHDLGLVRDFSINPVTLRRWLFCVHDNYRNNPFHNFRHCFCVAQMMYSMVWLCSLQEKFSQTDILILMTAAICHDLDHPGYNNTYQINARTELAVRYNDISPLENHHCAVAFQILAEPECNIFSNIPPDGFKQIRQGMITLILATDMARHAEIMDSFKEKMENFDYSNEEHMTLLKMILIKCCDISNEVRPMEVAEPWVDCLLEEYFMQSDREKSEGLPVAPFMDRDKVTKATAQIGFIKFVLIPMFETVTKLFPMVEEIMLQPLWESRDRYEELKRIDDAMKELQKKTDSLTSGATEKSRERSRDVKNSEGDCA

IC50 [nM]	Compound
7.2	CCC1CN(Cc2ccccc2)CC1c1nc2c(cnn2C2CCOCC2)c(=O)[nH]1 (racemic) [97(a), 6-[(3,4-trans)-1-benzyl-4-ethylpyrrolidin-3-yl]-1-(tetrahydro-2H-pyran-4-yl)-1,5-dihydro-4H-pyrazolo[3,4-d]pyrimidin-4-one]

Same assay, conditions: human recombinant PDE9 from SF-9 cells; 50 nM [3H]cGMP; room temperature, 30 min; Examples 3-114; read-out: G5678A (U): IC50

IC50 [nM]	Compound
26	C[C@@H]1CN(Cc2cncnc2)C[C@H]1c1nc2c(cnn2C2CCCC2)c(=O)[nH]1 (racemic) [Example 14, 1-cyclopentyl-6-[(3,4-trans)-4-methyl-1-(pyrimidin-5-ylmethyl)pyrrolidin-3-yl]-1,5-dihydro-4H-pyrazolo[3,4-d]pyrimidin-4-one]
16.2	Cc1ncccc1CN1C[C@@H](C)[C@H](c2nc3c(cnn3C3CCCC3)c(=O)[nH]2)C1 (racemic) [Example 17, 1-cyclopentyl-6-{(3,4-trans)-4-methyl-1-[(2-methylpyridin-3-yl)methyl]pyrrolidin-3-yl}-1,5-dihydro-4H-pyrazolo[3,4-d]pyrimidin-4-one]
8.26	C[C@@H]1CN(Cc2cccc3cccnc23)C[C@H]1c1nc2c(cnn2C2CCCC2)c(=O)[nH]1 (racemic) [Example 18, 1-cyclopentyl-6-[(3,4-trans)-4-methyl-1-(quinolin-8-ylmethyl)pyrrolidin-3-yl]-1,5-dihydro-4H-pyrazolo[3,4-d]pyrimidin-4-one]
2.68	C[C@@H]1CN(Cc2cnc3ccccc3c2)C[C@H]1c1nc2c(cnn2C2CCCC2)c(=O)[nH]1 (racemic) [Example 19, 1-cyclopentyl-6-[(3,4-trans)-4-methyl-1-(quinolin-3-ylmethyl)pyrrolidin-3-yl]-1,5-dihydro-4H-pyrazolo[3,4-d]pyrimidin-4-one]
7.06	Cc1ccc(CN2C[C@@H](C)[C@H](c3nc4c(cnn4C4CCCC4)c(=O)[nH]3)C2)cn1 (racemic) [Example 20, 1-cyclopentyl-6-{(3,4-trans)-4-methyl-1-[(6-methylpyridin-3-yl)methyl]pyrrolidin-3-yl}-1,5-dihydro-4H-pyrazolo[3,4-d]pyrimidin-4-one]
34.5	CC(C)[C@@H]1CN(Cc2ccccc2)C[C@H]1c1nc2c(cnn2C2CCCC2)c(=O)[nH]1 (racemic) [Example 21, 6-[(3,4-trans)-1-benzyl-4-isopropylpyrrolidin-3-yl]-1-cyclopentyl-1,5-dihydro-4H-pyrazolo[3,4-d]pyrimidin-4-one]
43.6	Cc1nn(C2CCCC2)c2nc([C@@H]3CN(Cc4ccccc4)C[C@H]3C)[nH]c(=O)c12 (racemic) [Example 22, 6-[(3,4-trans)-1-benzyl-4-methylpyrrolidin-3-yl]-1-cyclopentyl-3-methyl-1,5-dihydro-4H-pyrazolo[3,4-d]pyrimidin-4-one]
119	C[C@@H]1CN(CCc2ccccc2)C[C@H]1c1nc2c(cnn2C2CCCC2)c(=O)[nH]1 (racemic) [Example 24, 1-cyclopentyl-6-[(3,4-trans)-4-methyl-1-(2-phenylethyl)pyrrolidin-3-yl]-1,5-dihydro-4H-pyrazolo[3,4-d]pyrimidin-4-one]
9.07	COc1ccc(CN2C[C@@H](C)[C@H](c3nc4c(cnn4C4CCCC4)c(=O)[nH]3)C2)cn1 (racemic) [Example 25, 1-cyclopentyl-6-{(3,4-trans)-1-[(6-methoxypyridin-3-yl)methyl]-4-methylpyrrolidin-3-yl}-1,5-dihydro-4H-pyrazolo[3,4-d]pyrimidin-4-one]
11.4	C[C@@H]1CN(Cc2ccccn2)C[C@H]1c1nc2c(cnn2C2CCCC2)c(=O)[nH]1 (racemic) [Example 26, 1-cyclopentyl-6-[(3,4-trans)-4-methyl-1-(pyridin-2-ylmethyl)pyrrolidin-3-yl]-1,5-dihydro-4H-pyrazolo[3,4-d]pyrimidin-4-one]
7.45	Cc1cccnc1CN1C[C@@H](C)[C@H](c2nc3c(cnn3C3CCCC3)c(=O)[nH]2)C1 (racemic) [Example 27, 1-cyclopentyl-6-{(3,4-trans)-4-methyl-1-[(3-methylpyridin-2-yl)methyl]pyrrolidin-3-yl}-1,5-dihydro-4H-pyrazolo[3,4-d]pyrimidin-4-one]
6.86	CC[C@@H]1CN(Cc2ccccc2)C[C@H]1c1nc2c(cnn2C2CCCC2)c(=O)[nH]1 (racemic) [Example 28, 6-[(3,4-trans)-1-benzyl-4-ethylpyrrolidin-3-yl]-1-cyclopentyl-1,5-dihydro-4H-pyrazolo[3,4-d]pyrimidin-4-one]
2.17	O=c1[nH]c([C@@H]2CN(Cc3ccccc3)C[C@H]2C2CC2)nc2c1cnn2C1CCCC1 (racemic) [Example 29, 6-[(3,4-trans)-1-benzyl-4-cyclopropylpyrrolidin-3-yl]-1-cyclopentyl-1,5-dihydro-4H-pyrazolo[3,4-d]pyrimidin-4-one]
5.19	CC(C)n1ncc2c(=O)[nH]c([C@@H]3CN(Cc4ccc5ccccc5n4)C[C@H]3C)nc21 (racemic) [Example 32, 1-isopropyl-6-[(3,4-trans)-4-methyl-1-(quinolin-2-ylmethyl)pyrrolidin-3-yl]-1,5-dihydro-4H-pyrazolo[3,4-d]pyrimidin-4-one]
6.29	CC(C)n1ncc2c(=O)[nH]c([C@@H]3CN(Cc4ccc5nccnc5c4)C[C@H]3C)nc21 (racemic) [Example 33, 1-isopropyl-6-[(3,4-trans)-4-methyl-1-(quinoxalin-6-ylmethyl)pyrrolidin-3-yl]-1,5-dihydro-4H-pyrazolo[3,4-d]pyrimidin-4-one]
4.33	CC(C)n1ncc2c(=O)[nH]c([C@@H]3CN(Cc4cnc5ccccc5c4)C[C@H]3C)nc21 (racemic) [Example 34, 1-isopropyl-6-[(3,4-trans)-4-methyl-1-(quinolin-3-ylmethyl)pyrrolidin-3-yl]-1,5-dihydro-4H-pyrazolo[3,4-d]pyrimidin-4-one]

Second part, the compound before the results:

Compound	IC50 [nM]
C[C@@H]1CN(c2nccc(C(F)(F)F)n2)C[C@H]1c1nc2c(cnn2C2CCCC2)c(=O)[nH]1 (racemic) [Example 4, 1-cyclopentyl-6-{(3,4-trans)-4-methyl-1-[4-(trifluoromethyl)pyrimidin-2-yl]pyrrolidin-3-yl}-1,5-dihydro-4H-pyrazolo[3,4-d]pyrimidin-4-one]	624
C[C@@H]1CN(c2ncccn2)C[C@H]1c1nc2c(cnn2C2CCCC2)c(=O)[nH]1 (racemic) [Example 5, 1-cyclopentyl-6-[(3,4-trans)-4-methyl-1-pyrimidin-2-ylpyrrolidin-3-yl]-1,5-dihydro-4H-pyrazolo[3,4-d]pyrimidin-4-one]	558
C[C@@H]1CN(C(=O)c2ccccc2)C[C@H]1c1nc2c(cnn2C2CCCC2)c(=O)[nH]1 (racemic) [Example 6, 6-[(3,4-trans)-1-benzoyl-4-methylpyrrolidin-3-yl]-1-cyclopentyl-1,5-dihydro-4H-pyrazolo[3,4-d]pyrimidin-4-one]	57.1
C[C@@H]1CN(Cc2cccnc2)C[C@H]1c1nc2c(cnn2C2CCCC2)c(=O)[nH]1 (racemic) [Example 7, 1-cyclopentyl-6-[(3,4-trans)-4-methyl-1-(pyridin-3-ylmethyl)pyrrolidin-3-yl]-1,5-dihydro-4H-pyrazolo[3,4-d]pyrimidin-4-one]	11.6
C[C@@H]1CN(Cc2cccc(C(F)(F)F)c2)C[C@H]1c1nc2c(cnn2C2CCCC2)c(=O)[nH]1 (racemic) [Example 8, 1-cyclopentyl-6-{(3,4-trans)-4-methyl-1-[3-(trifluoromethyl)benzyl]pyrrolidin-3-yl}-1,5-dihydro-4H-pyrazolo[3,4-d]pyrimidin-4-one]	11.2
C[C@@H]1CN(Cc2ccc3ccccc3n2)C[C@H]1c1nc2c(cnn2C2CCCC2)c(=O)[nH]1 (racemic) [Example 9, 1-cyclopentyl-6-[(3,4-trans)-4-methyl-1-(quinolin-2-ylmethyl)pyrrolidin-3-yl]-1,5-dihydro-4H-pyrazolo[3,4-d]pyrimidin-4-one]	2.84
C[C@@H]1CN(Cc2ccnc3ccccc23)C[C@H]1c1nc2c(cnn2C2CCCC2)c(=O)[nH]1 (racemic) [Example 10, 1-cyclopentyl-6-[(3,4-trans)-4-methyl-1-(quinolin-4-ylmethyl)pyrrolidin-3-yl]-1,5-dihydro-4H-pyrazolo[3,4-d]pyrimidin-4-one]	4.98
C[C@@H]1CN(Cc2ccc(C(F)(F)F)nc2)C[C@H]1c1nc2c(cnn2C2CCCC2)c(=O)[nH]1 (racemic) [Example 11, 1-cyclopentyl-6-[(3,4-trans)-4-methyl-1-{[6-(trifluoromethyl)pyridin-3-yl]methyl}pyrrolidin-3-yl]-1,5-dihydro-4H-pyrazolo[3,4-d]pyrimidin-4-one]	18.9
C[C@@H]1CN(Cc2cnc3ccccc3n2)C[C@H]1c1nc2c(cnn2C2CCCC2)c(=O)[nH]1 (racemic) [Example 12, 1-cyclopentyl-6-[(3,4-trans)-4-methyl-1-(quinoxalin-2-ylmethyl)pyrrolidin-3-yl]-1,5-dihydro-4H-pyrazolo[3,4-d]pyrimidin-4-one]	7.23
C[C@@H]1CN(Cc2ccc3nccnc3c2)C[C@H]1c1nc2c(cnn2C2CCCC2)c(=O)[nH]1 (racemic) [Example 13, 1-cyclopentyl-6-[(3,4-trans)-4-methyl-1-(quinoxalin-6-ylmethyl)pyrrolidin-3-yl]-1,5-dihydro-4H-pyrazolo[3,4-d]pyrimidin-4-one]	6.61
